From the NIST ThermoML archive (doi:10.1016/j.jct.2016.10.023)
Where “and” joins values, the source holds several entries; their conditions need not be identical. Identical values can stand only once.

Test: xn = mol fraction of the nth substance listed
Conditions: Constant-volume piezometry

CCCCC [pentane] + CCCO
Conditions	mass density
473.15 K, 3570 kPa, Gas, x1 = 0.9	221.23 kg/m3
473.15 K, 3581 kPa, Fluid (supercritical or subcritical phases), x1 = 0.9	202.87 kg/m3
473.15 K, 3589 kPa, Fluid (supercritical or subcritical phases), x1 = 0.9	221.23 kg/m3
473.15 K, 3592 kPa, Gas, x1 = 0.8	140.64 kg/m3
473.15 K, 3596 kPa, Fluid (supercritical or subcritical phases), x1 = 0.9	233.64 kg/m3 and 237.11 kg/m3
473.15 K, 3598 kPa, Fluid (supercritical or subcritical phases), x1 = 0.9	241.52 kg/m3
473.15 K, 3600 kPa, Fluid (supercritical or subcritical phases), x1 = 0.9	244.84 kg/m3
473.15 K, 3614 kPa, Fluid (supercritical or subcritical phases), x1 = 0.9	282.71 kg/m3
473.15 K, 3634 kPa, Fluid (supercritical or subcritical phases), x1 = 0.9	302.44 kg/m3
473.15 K, 3679 kPa, Fluid (supercritical or subcritical phases), x1 = 0.9	313.12 kg/m3
473.15 K, 3689 kPa, Fluid (supercritical or subcritical phases), x1 = 0.8	316.17 kg/m3
473.15 K, 3767 kPa, Liquid, x1 = 0.8	311.76 kg/m3
473.15 K, 3769 kPa, Liquid, x1 = 0.8	312.18 kg/m3
473.15 K, 3862 kPa, Liquid, x1 = 0.8	334.71 kg/m3
473.15 K, 3867 kPa, Fluid (supercritical or subcritical phases), x1 = 0.9	334.89 kg/m3
473.15 K, 4019 kPa, Liquid, x1 = 0.8	346.27 kg/m3
473.15 K, 4251 kPa, Fluid (supercritical or subcritical phases), x1 = 0.9	355.05 kg/m3
473.15 K, 4349 kPa, Liquid, x1 = 0.5	442.18 kg/m3
473.15 K, 4439 kPa, Liquid, x1 = 0.8	362.89 kg/m3
473.15 K, 5156 kPa, Liquid, x1 = 0.5	452.53 kg/m3
473.15 K, 5785 kPa, Liquid, x1 = 0.5	459.62 kg/m3
473.15 K, 6747 kPa, Fluid (supercritical or subcritical phases), x1 = 0.9	408.4 kg/m3
473.15 K, 6942 kPa, Liquid, x1 = 0.5	469.49 kg/m3
473.15 K, 7120 kPa, Liquid, x1 = 0.8	419.36 kg/m3
473.15 K, 7219 kPa, Liquid, x1 = 0.2	548.71 kg/m3
473.15 K, 13549 kPa, Liquid, x1 = 0.5	508.06 kg/m3
473.15 K, 13806 kPa, Liquid, x1 = 0.8	468.05 kg/m3
473.15 K, 16233 kPa, Liquid, x1 = 0.5	520.92 kg/m3
473.15 K, 16852 kPa, Liquid, x1 = 0.2	583.19 kg/m3
473.15 K, 20923 kPa, Liquid, x1 = 0.8	497.59 kg/m3
473.15 K, 22686 kPa, Liquid, x1 = 0.2	596.85 kg/m3
473.15 K, 24900 kPa, Liquid, x1 = 0.5	549.88 kg/m3
473.15 K, 30448 kPa, Liquid, x1 = 0.8	522.21 kg/m3
473.15 K, 32094 kPa, Liquid, x1 = 0.2	616.32 kg/m3
473.15 K, 38268 kPa, Liquid, x1 = 0.5	576.1 kg/m3
474.15 K, 3452 kPa, Liquid, x1 = 0.5	418.33 kg/m3
474.15 K, 3457 kPa, Liquid, x1 = 0.5	418.33 kg/m3
474.15 K, 3855 kPa, Liquid, x1 = 0.8	311.75 kg/m3
474.15 K, 3858 kPa, Liquid, x1 = 0.8	312.16 kg/m3
475.15 K, 3641 kPa, Liquid, x1 = 0.5	418.31 kg/m3
475.15 K, 3789 kPa, Fluid (supercritical or subcritical phases), x1 = 0.9	302.41 kg/m3
475.15 K, 3944 kPa, Liquid, x1 = 0.8	312.15 kg/m3
477.15 K, 3017 kPa, Liquid, x1 = 0.2	510.96 kg/m3
478.15 K, 3181 kPa, Gas, x1 = 0.5	89.1 kg/m3
478.15 K, 3700 kPa, Liquid, x1 = 0.5	399.08 kg/m3
478.15 K, 3850 kPa, Fluid (supercritical or subcritical phases), x1 = 0.8	214.32 kg/m3
478.15 K, 3857 kPa, Fluid (supercritical or subcritical phases), x1 = 0.8	220.1 kg/m3
478.15 K, 3944 kPa, Fluid (supercritical or subcritical phases), x1 = 0.8	273.15 kg/m3
480.15 K, 3218 kPa, Gas, x1 = 0.5	89.09 kg/m3
480.15 K, 3965 kPa, Fluid (supercritical or subcritical phases), x1 = 0.8	220.08 kg/m3
480.15 K, 4198 kPa, Fluid (supercritical or subcritical phases), x1 = 0.9	302.34 kg/m3
482.15 K, 3886 kPa, Liquid, x1 = 0.5	384.8 kg/m3
483.15 K, 867 kPa, Gas, x1 = 0.5	15.55 kg/m3
483.15 K, 1195 kPa, Gas, x1 = 0.8	22.57 kg/m3
483.15 K, 1378 kPa, Gas, x1 = 0.2	24.98 kg/m3
483.15 K, 1547 kPa, Gas, x1 = 0.5	30.04 kg/m3
483.15 K, 1753 kPa, Gas, x1 = 0.8	36.76 kg/m3
483.15 K, 2012 kPa, Gas, x1 = 0.5	40.56 kg/m3
483.15 K, 2335 kPa, Gas, x1 = 0.5	51.19 kg/m3
483.15 K, 2505 kPa, Gas, x1 = 0.8	58.52 kg/m3
483.15 K, 2571 kPa, Gas, x1 = 0.2	53.11 kg/m3
483.15 K, 2845 kPa, Gas, x1 = 0.5	67.65 kg/m3
483.15 K, 2913 kPa, Gas, x1 = 0.8	73.93 kg/m3
483.15 K, 2963 kPa, Gas, x1 = 0.5	72.74 kg/m3
483.15 K, 3039 kPa, Gas, x1 = 0.9	83.54 kg/m3

Liquid
Conditions	mass density [kg/m3]
473.15 K, x1 = 0.5	418.35
474.15 K, x1 = 0.8	299.93
475.25 K, x1 = 0.8	289.08
475.65 K, x1 = 0.8	273.18
475.95 K, x1 = 0.8	259.17
476.15 K, x1 = 0.8	245.91
476.35 K, x1 = 0.2	510.98
476.45 K, x1 = 0.5	399.12
482.15 K, x1 = 0.5	373.68
